Laboratory results reported in US6218393A, “Anthranilic acid derivatives as multi drug resistance modulators” (priority 1997, dated 2001).

What was measured:
H69/LX4 cells = test: Potentiation of toxicity of various cytotoxic agents, H69/LX4 cell line; assay type: cell-based; conditions: for Potentiation Index at RMA concentration 10 nM: RMA 10 nM; for Potentiation Index at RMA concentration 30 nM: RMA 30 nM; for Potentiation Index at RMA concentration 50 nM: RMA 50 nM
Procedure: (§1) (b) Cells were cultured for four days with a titration of doxorubicin (0.263 nM-17.24 μM) in the presence of a fixed concentration of each compound. Proliferation was quantified as described by Skehen et al, loc cit. The IC50 (concentration required to reduce proliferation to 50% of the untreated controls) for doxorubicin alone and with each compound were derived and used to calculate the potentiation index (PI): [formula]
(§2) The potentiation indices of a selection of compounds using a variety of cell lines and a variety of cytotoxics other than doxorubicin were measured following the protocol described above for doxorubicin, and the results are shown in Table D.

AR 1.0 cells [1] = test: Potentiation index with doxorubicin titration; assay type: cell-based, mouse; conditions: for Potentiation Index at RMA concentration 50 nM: Table C1, RMA 50 nM
Method in brief: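 Doxorubicin IC50 in AR 1.0 cells (MDR subline of EMT6 mouse mammary carcinoma) determined by sulphorhodamine B after 4-day culture across 0.263 nM-17.24 μM, with and without a fixed dose of test compound; their ratio gives the PI.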

AR 1.0 cells [2] = test: Drug accumulation assay: daunorubicin accumulation in AR 1.0 cells; assay type: cell-based; conditions: Mus musculus, 100% = accumulation with verapamil 100 μM, 1 hr, 37° C.
Method in brief: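 Daunorubicin accumulation was measured in cells plated 48 h beforehand. These were AR 1.0 cells, an MDR-resistant derivative of mouse EMT6 mammary carcinoma, cultured at 37 °C in 5% CO2 in RPMI 1640 plus 10% foetal calf serum and 2 mM glutamine.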

MDR cells = conditions: in vitro and in vivo; cited from earlier work
AR 1.0 cells [3] = test: Potentiation of doxorubicin toxicity: proliferation assay (sulphorhodamine B); assay type: cell-based, mouse; conditions: Mus musculus, 96 h; compound alone; four day proliferation; read-out: Compound Toxicity (IC50)
Text: (a) Selected compounds of formula (I) were examined for their ability to potentiate the toxicity of doxorubicin in AR 1.0 cells.

AR 1.0 cells [4] = test: Potentiation of toxicity of various cytotoxic agents, AR 1.0 cell line; assay type: cell-based, mouse; conditions: for Potentiation Index at RMA concentration 10 nM: RMA 10 nM; for Potentiation Index at RMA concentration 30 nM: RMA 30 nM; for Potentiation Index at RMA concentration 50 nM: RMA 50 nM
Procedure: The EMT6 mouse mammary carcinoma cell line and the MDR resistant subline AR 1.0 were cultured in RPMI 1640 medium containing 10% foetal calf serum and 2 mM glutamine at 37° C. in 5% CO2. Cells were passaged between 1 in 200 and 1 in 2000 in the case of the parental cell line and between 1 in 20 and 1 in 200 in the case of the MDR resistant subline, after trypsinisation (0.25% trypsin, 0.2 gl^-1, EDTA).
as §1, §2

mdr la P-gp gene = conditions: cited from earlier work
2780AD cells = test: Potentiation of toxicity of various cytotoxic agents, 2780AD cell line; assay type: cell-based; conditions: Taxol; for Potentiation Index at RMA concentration 10 nM: RMA 10 nM; for Potentiation Index at RMA concentration 30 nM: RMA 30 nM; for Potentiation Index at RMA concentration 50 nM: RMA 50 nM
Procedure: as §1, §2

| Compound | Potentiation Index at RMA concentration 10 nM (H69/LX4 cells; Taxol) | Potentiation Index at RMA concentration 30 nM (H69/LX4 cells; Taxol) | Potentiation Index at RMA concentration 50 nM (H69/LX4 cells; Taxol) | Potentiation Index at RMA concentration 10 nM (AR 1.0 cells [1]; Table C1, RMA 10 nM) | Potentiation Index at RMA concentration 30 nM (AR 1.0 cells [1]; Table C1, RMA 30 nM) | Potentiation Index at RMA concentration 50 nM (AR 1.0 cells [1]) | Potentiation Index at RMA concentration 100 nM (AR 1.0 cells [1]; Table C1, RMA 100 nM) | IC50 (AR 1.0 cells [2]) | Potentiation Index at RMA concentration 10 nM (2780AD cells) | Potentiation Index at RMA concentration 30 nM (2780AD cells) | Potentiation Index at RMA concentration 50 nM (2780AD cells) | Potentiation Index at RMA concentration 10 nM (H69/LX4 cells; Vincristine) | Potentiation Index at RMA concentration 30 nM (H69/LX4 cells; Vincristine) | Potentiation Index at RMA concentration 50 nM (H69/LX4 cells; Vincristine) | further results |
| --- | --- | --- | --- | --- | --- | --- | --- | --- | --- | --- | --- | --- | --- | --- | --- |
| COc1cc2c(cc1OC)CN(CCc1ccc(NC(=O)c3c(C)csc3NC(=O)c3cnc4ccccc4c3)cc1)CC2 [compound 9609, Quinoline-3-carboxylic acid (3-{4-[2-(6,7-dimethoxy-3,4-dihydro-1H-isoquinolin-2-yl)-ethyl]-phenylcarbamoyl}-4-methyl-thiophen-2-yl)-amide] | 1 | 3 | 9 | 1.4 | 7.4 | 19 | 68 | 431 nM | – | – | – | – | – | – | Potentiation Index at RMA concentration 20 nM (AR 1.0 cells [1]; Table C1, RMA 20 nM): 3.4 |
| COc1ccc(CN2CCc3ccc(NC(=O)c4ccccc4NC(=O)c4cnc5ccccc5n4)cc3C2)cc1OC [compound 9614, Quinoxaline-2-carboxylic acid {2-[2-(3,4-dimethoxy-benzyl)-1,2,3,4-tetrahydro-isoquinolin-7-ylcarbamoyl]-phenyl}-amide] | – | 1.1 | 11 | 2 | 9 | 32 | 52 | 278 nM | – | – | – | – | – | – | – |
| COc1ccc(CCN(C)CCCC(C#N)(c2ccc(OC)c(OC)c2)C(C)C)cc1OC (stereo not drawn) [Verapamil] | – | – | – | – | – | – | – | – | – | – | – | – | – | – | sensitisation of MDR cells to Vinca alkaloids (MDR cells): shown to sensitise MDR cells to Vinca alkaloids in vitro and in vivo |
| COc1ccc(CN(C)CCc2ccc(NC(=O)c3ccccc3NC(=O)c3cnc4ccccc4c3)cc2)cc1OC [compound 9613, Quinoline-3-carboxylic acid [2-(4-{2-[(3,4-dimethoxy-benzyl)-methyl-amino]-ethyl}-phenylcarbamoyl)-phenyl]-amide] | 2.2 | 236 | 877 | 3 | 35 | 97 | 168 | 98 nM | – | – | – | – | – | – | – |
| COc1cc2c(cc1OC)CN(CCc1ccc(NC(=O)c3cc(OC)c(OC)cc3NC(=O)c3cnc4ccccc4c3)cc1)CC2 [compound 9576, Quinoline-3-carboxylic acid (2-{4-[2-(6,7-dimethoxy-3,4-dihydro-1H-isoquinolin-2-yl)-ethyl]-phenylcarbamoyl}-4,5-dimethoxy-phenyl)-amide] | – | – | – | – | – | – | – | 64 nM | – | – | – | – | – | – | IC50 (AR 1.0 cells [3]): 930 nM; Potentiation Index at RMA concentration 10 nM (AR 1.0 cells [1]; Table C2, RMA 10 nM): 78; Potentiation Index at RMA concentration 30 nM (AR 1.0 cells [1]; Table C2, RMA 30 nM): 225; Potentiation Index at RMA concentration 100 nM (AR 1.0 cells [1]; Table C2, RMA 100 nM): 280; Potentiation Index at RMA concentration 10 nM (AR 1.0 cells [4]; Etoposide): 26; Potentiation Index at RMA concentration 30 nM (AR 1.0 cells [4]; Etoposide): 45; Potentiation Index at RMA concentration 50 nM (AR 1.0 cells [4]; Etoposide): 51 |
| COc1ccc(CN(C)CCc2ccc(NC(=O)c3ccccc3NC(=O)c3cnc4ccccc4n3)cc2)cc1OC [compound 9612, Quinoxaline-2-carboxylic acid [2-(4-{2-[(3,4-dimethoxy-benzyl)-methyl-amino]-ethyl}-phenylcarbamoyl)-phenyl]-amide] | 51 | 894 | 1329 | 11 | 95 | 149 | 171 | 87 nM | – | – | – | – | – | – | – |
| ivermectin | – | – | – | – | – | – | – | – | – | – | – | – | – | – | increased sensitivity of mice deficient in mdr la P-gp gene (mdr la P-gp gene): up to 100 fold |
| COc1cc2c(cc1OC)CN(CCc1ccc(NC(=O)c3sccc3NC(=O)c3cnc4ccccc4n3)cc1)CC2 [compound 9597, Quinoxaline-2-carboxylic acid (2-{4-[2-(6,7-dimethoxy-3,4-dihydro-1H-isoquinolin-2-yl)-ethyl]-phenylcarbamoyl}-thiophen-3-yl)-amide] | – | – | – | 80 | 382 | 551 | 878 | 87 nM | 110 | 1427 | 2070 | 1 | 41 | 44 | – |
| COc1cc2c(cc1OC)CN(CCc1ccc(NC(=O)c3sccc3NC(=O)c3cnc4ccccc4c3)cc1)CC2 [compound 9594, Quinoline-3-carboxylic acid (2-{4-[2-(6,7-dimethoxy-3,4-dihydro-1H-isoquinolin-2-yl)-ethyl]-phenylcarbamoyl}-thiophen-3-yl)-amide] | – | – | – | 11 | 159 | 307 | 601 | 87 nM | 18 | 425 | 1126 | 2 | 79 | 356 | Potentiation Index at RMA concentration 10 nM (AR 1.0 cells [4]; Taxol): 50; Potentiation Index at RMA concentration 30 nM (AR 1.0 cells [4]; Taxol): 308; Potentiation Index at RMA concentration 50 nM (AR 1.0 cells [4]; Taxol): 407 |
| COc1cc2c(cc1OC)CN(CCc1ccc(NC(=O)c3cc(N(C)C)ccc3NC(=O)c3cnc4ccccc4n3)cc1)CC2 [compound 9596, Quinoxaline-2-carboxylic acid (2-{4-[2-(6,7-dimethoxy-3,4-dihydro-1H-isoquinolin-2-yl)-ethyl]-phenylcarbamoyl}-4-dimethylamino-phenyl)-amide] | – | – | – | 2.68 | 44 | 131 | 354 | 132 nM | 3.5 | 160 | 743 | 1 | 2 | 158 | – |
